Measurements reported in BindingDB's records for doi:10.2174/1568007033482805 (University of Sydney, 2003).

Biological target: T1, Gamma-aminobutyric acid receptor subunit alpha-3 (Homo sapiens, UniProt P34903)
T1 sequence (P34903 whole entry): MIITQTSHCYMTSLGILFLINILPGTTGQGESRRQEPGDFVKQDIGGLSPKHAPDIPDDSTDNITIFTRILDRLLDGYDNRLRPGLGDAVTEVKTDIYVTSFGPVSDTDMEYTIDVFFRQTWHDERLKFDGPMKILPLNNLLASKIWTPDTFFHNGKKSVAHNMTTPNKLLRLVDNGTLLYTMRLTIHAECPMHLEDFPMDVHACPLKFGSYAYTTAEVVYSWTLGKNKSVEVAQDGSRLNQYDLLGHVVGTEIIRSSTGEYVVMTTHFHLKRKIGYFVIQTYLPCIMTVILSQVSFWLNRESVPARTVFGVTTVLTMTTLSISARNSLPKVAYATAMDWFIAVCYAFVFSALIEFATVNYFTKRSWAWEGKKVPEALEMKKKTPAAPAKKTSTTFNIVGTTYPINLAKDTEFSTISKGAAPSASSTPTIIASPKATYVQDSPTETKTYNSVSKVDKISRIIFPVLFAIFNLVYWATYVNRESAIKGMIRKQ

| Compound | Ki |
| --- | --- |
| O=c1[nH][nH]c2c1CCNC2 [THIP, Aza-] | > 10 µM |
| O=c1o[nH]c2c1CCNC2 [NSC_130546] | 7.9 µM |
